Assay results from patent publication US10071133B2, “Method for destroying exosomes, kit for destroying exosomes, and method for isolating exosomes derived from normal cells” (priority 2015, dated 2018).

How the values were obtained:
[1] = test system: exosomes derived from human breast cancer cells (MM231-luc-D3H2LN) in human peripheral blood sample; details: […]10^10 particles/mL exosomes, 100 μM magainin 2 or 8% phenol, 25° C., 24 hours
Experimental: The exosome fraction A prepared from the cell line MM231-luc-D3H2LN derived from human breast cancer cells was added to a peripheral blood sample collected from a healthy person with no cancer (hereinafter will be also referred to as human peripheral blood sample) so as to become an exosome concentration of an actual cancer patient, and thereby an artificial sample of a human peripheral blood of the cancer patient was produced. The human peripheral blood sample was obtained after procurement of the patient informed consent according to the Declaration of Helsinki, similarly to the method described in Japanese Unexamined patent publication No. 2013-198483, for example. Blood was drawn using a blood collection tube containing an anticoagulant.
Using a part of the incubated solution, the exosomes were purified with Exo-Flow32 CD9 IP Kit (manufactured by SBI), and then the number of exosomes in the solution was measured using the nanoparticle analyzer (NanoSight LM10; manufactured by NanoSight, Ltd.). […] In addition, a part of the incubated solution was subjected to the serum component protein electrophoresis.

[2] = test system: exosome fraction B derived from human breast cancer cells (MDA-MB-231-luc-D3H2LN); test: Extraction of microRNA (miR-21) from exosomes derived from human breast cancer cells, real-time PCR; assay type: biochemical; details: 100 μM peptide, 1×10^11 particles/mL exosomes, 0.4 U/μL RNase inhibitor, 37° C., 24 hours; without peptide 8×10^−14M
Experimental: A cell suspension of cell line MDA-MB-231-luc-D3H2LN derived from human breast cancer (=MM231-luc-D3H2LN, provided by the National Cancer Center Research Institute) was seeded in a dish containing RPMI 1640 medium (manufactured by Thermo Fisher Scientific Inc.) containing 10% fetal bovine serum. Subsequently, the cell line was grown at 37° C. under the condition that CO2 concentration was set to 5 volume % using a CO2 incubator, and then the medium was replaced with Advanced RPMI 1640 medium (manufactured by Thermo Fisher Scientific Inc.), followed by culturing for 48 hours, and therefore the culture solution containing exosomes was obtained. This culture solution was centrifuged at 2,000 G for 10 minutes to remove the precipitate, followed by centrifugation at 110,000 G for 70 minutes to precipitate the exosomes, and therefore an exosome fraction B was recovered. The recovered exosome fraction B was suspended in a phosphate buffered saline (PBS) and then stored at 4° C. Storage samples were lightly suspended with a vortex mixer (vibration mixer) before use.
MicroRNA (miR-21 or miR-16) in the reaction solution was subjected to reverse transcription PCR using reverse transcription primers (manufactured by Thermo Fisher Scientific Inc., Taqman microRNA Assays, RT primers, and hsa-mir-21 or hsa-mir-16) and a reverse transcriptase (manufactured by Thermo Fisher Scientific Inc., Taqman microRNA RT kit).
(§1) The reverse transcription PCR solution obtained by the above described method was processed and by comparing the number of cycles on a calibration curve of microRNA using Taqman Assay primer (manufactured by Thermo Fisher Scientific Inc., Taqman microRNA Assays, Taqman Assay primer, and hsa-mir-21 or hsa-mir-16) and Real-Time PCR Master Mixes (manufactured by Thermo Fisher Scientific Inc., TaqMan Universal PCR Master Mix II, w/UNG) with StepOnePlus Real-Time PCR System, MiR-21 or miR-16 was quantified. The calibration curve of microRNA was created using synthetic miR-21 (manufactured by Sigma-Aldrich Co. LLC.) or synthetic miR-16 (manufactured by Sigma-Aldrich Co. LLC.).
10 μL of the exosome fraction was prepared such that PBS contains 1×10^11 particles/mL of the exosome fraction B derived from human breast cancer cells, various antimicrobial peptides shown in the following Table 2 adjusted to 100 μM, and 0.4 U/μL of RNase inhibitor (manufactured by Toyobo Co., Ltd.), followed by incubation by being left to stand at 37° C. for 24 hours.
MicroRNA eluted into the solution was purified and recovered from the incubated solution of Example 10 above and Comparative Example 6 above by the following method.
First, 160 μL of PBS was added to the reaction solution, and then the solution was added to a centrifugal filter (manufactured by Millipore Corporation, Amicon Ultra 0.5 mL, 100K filter) and centrifuged at 14,000 G for 2 minutes. Subsequently, 100 μL of the centrifuged filtrate was recovered and introduced into a 1.5 mL tube. Next, 350 μL of RLT buffer (manufactured by QIAGEN, attached with RNeasy mini kit) and 675 μL of ethanol were added and mixed in the 1.5 mL tube. The obtained mixture was separated into two parts, and each of the separates was added onto a spin column (manufactured by QIAGEN, attached with RNeasy mini kit) followed by centrifugation at 8,000 G for 15 seconds, and the entire amount of the mixture was passed through the spin column. Thereafter, 500 μL of RPE buffer (manufactured by QIAGEN, attached with RNeasy mini kit) was added thereto and centrifuged at 8,000 G for 15 seconds. Furthermore, 500 μL of the RPE buffer was added to the spin column once more and centrifuged at 8,000 G for 15 seconds. Thereafter, the spin column was centrifuged at 14,000 G for 1 minute to remove the residual RPE buffer. Next, 30 μL of RNase free water (manufactured by QIAGEN, attached with RNeasy mini kit) was added to the spin column, left for 1 minute, and then centrifuged at 14,000 G for 1 minute, and the eluate obtained thereby was recovered. […]

[3] = test system: exosome derived from human prostate cancer cells (PC3ML); test: Extraction of microRNA (miR-21) from exosome derived from prostate cancer cells, real-time PCR; assay type: biochemical; details: 100 μM peptide, 1×10^11 particles/mL PC3ML exosomes, 0.4 U/μL RNase inhibitor, 37° C., 24 hours; without peptide 3×10^−14M
Experimental: A cell suspension of cell line PC3ML derived from human prostate cancer cells (provided by the National Cancer Center Research Institute) was seeded in a dish containing RPMI 1640 medium (manufactured by Thermo Fisher Scientific Inc.) containing 10% fetal bovine serum. Subsequently, the cell line was grown at 37° C. under the condition that CO2 concentration was set to 5 volume % using a CO2 incubator, and then the medium was replaced with Advanced RPMI 1640 medium (manufactured by Thermo Fisher Scientific Inc.), followed by culturing for 48 hours, and the culture solution containing exosomes was obtained. This culture solution was centrifuged at 2,000 G for 10 minutes to remove the precipitate, followed by centrifugation at 110,000 G for 70 minutes to precipitate the exosomes, and therefore an exosome fraction was recovered. The recovered exosome fraction was suspended in a phosphate buffered saline (PBS) and then stored at 4° C. Storage samples were lightly suspended with a vortex mixer (vibration mixer) before use. […]
as §1, with “The calibration curve of microRNA was created using synthetic miR-21 (manufactured by Sigma-Aldrich Co. LLC.) or synthetic miR-16 (manufactured by Sigma-Aldrich Co. LLC.).” left out
The amount of microRNA (miR-21) contained in the recovered eluate was quantified by the above described real-time PCR method. […] In addition, the destructive activity of the antimicrobial peptide used was evaluated on the basis of the following criteria based on the quantitative result of the concentration of microRNA (miR-21) performed by the real-time PCR method. […]

Oc1ccccc1 [Comparative Example 2, phenol, reference compound]
exosome amount compared to Comparative Example 3 (no additive) [1]: decreased

Polybia-MPI
Destructive activity (concentration of microRNA miR-21 in eluate) [2]: B (the concentration of microRNA is 10×10^−14M to 50×10^−14M)
Destructive activity (concentration of microRNA miR-21 in eluate) [3]: A (the concentration of microRNA is 10×10^−14M or more)
